The structures appear in SMILES notation.

As a reminder, the inhibition is the relative decrease from the control value, in per cent. Usually IC50 stands for the concentration at which inhibition is half-maximal.

The target of one assay is T1, HCV polymerase (Hepatitis C virus genotype 1b, UniProt P26663).
T1 construct: 2.5 pmoles (0.15 μg) HCV polymerase protein in a final volume of 75 μL
T1 sequence (P26663 2420-3010): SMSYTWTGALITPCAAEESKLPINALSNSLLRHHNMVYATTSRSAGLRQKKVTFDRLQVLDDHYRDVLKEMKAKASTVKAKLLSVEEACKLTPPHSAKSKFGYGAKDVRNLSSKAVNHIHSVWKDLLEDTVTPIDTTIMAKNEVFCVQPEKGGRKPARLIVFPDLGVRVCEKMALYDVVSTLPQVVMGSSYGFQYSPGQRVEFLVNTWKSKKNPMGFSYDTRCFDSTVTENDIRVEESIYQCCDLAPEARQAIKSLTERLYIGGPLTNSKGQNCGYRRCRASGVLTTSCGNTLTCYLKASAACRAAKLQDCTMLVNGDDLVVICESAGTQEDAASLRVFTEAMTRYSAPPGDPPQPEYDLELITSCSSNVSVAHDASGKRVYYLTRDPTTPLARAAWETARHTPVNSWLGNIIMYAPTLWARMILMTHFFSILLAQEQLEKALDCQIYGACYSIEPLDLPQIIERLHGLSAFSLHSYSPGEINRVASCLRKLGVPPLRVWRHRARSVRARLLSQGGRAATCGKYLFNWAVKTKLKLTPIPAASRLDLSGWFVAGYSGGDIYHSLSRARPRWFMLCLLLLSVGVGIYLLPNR
Description: HCV polymerase primer/template-directed transcription assay (32P-GTP incorporation, filter binding). In kind it is biochemical. The settings on record: @ 50 uM compound; given where IC50 was impractical to calculate; read-out: percent inhibition. The gist of the method: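 Recombinant genotype 1b polymerase (30 nM) extended biotin-dG12 primer on poly(rC)300 template with 1 μM GTP plus α-32P-GTP, pH 7.2, 10 mM MgCl2, 30 min at 30° C, 1% DMSO final. Products captured on DE filters and counted. IC50 fitted from triplicate cpm, with a tight-binding correction applied below 200 nM.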
On to `CC(=O)n1nc(C)c(CCC2(C3CCCC3)CC(=O)CC(=O)O2)c1C` (centres unmarked) [A(19), 6-[2-(1-Acetyl-3,5-dimethyl-1H-pyrazol-4-yl)-ethyl]-6-cyclopentyl-dihydro-pyran-2,4-dione], for which the inhibition at 50 µM was 37%. `CCC1(CCc2ccc(OC)cc2)CC(=O)CC(=O)O1` (centres unmarked) [A(23), 6-Ethyl-6-[2-(4-methoxy-phenyl)-ethyl]-dihydro-pyran-2,4-dione]: the inhibition at 50 µM is 1%. `COc1ccc(CCC2(CC(C)C)CC(=O)CC(=O)O2)cc1` (centres unmarked) [A(24), 6-Isobutyl-6-[2-(4-methoxy-phenyl)-ethyl]-dihydro-pyran-2,4-dione]: the inhibition at 50 µM was 29%. As for `C=CCC1(CCc2ccc(OC)cc2)CC(=O)CC(=O)O1` (centres unmarked) [A(26), 6-Allyl-6-[2-(4-methoxy-phenyl)-ethyl]-dihydro-pyran-2,4-dione], the inhibition at 50 µM was 20%. Consider `CCOC(=O)CC(=O)N[C@H](C)c1ccc(CCC2(C3CCCC3)CC(=O)CC(=O)O2)cc1` (some centres unmarked) [A(39), N-(1-{4-[2-(2-Cyclopentyl-4,6-dioxo-tetrahydro-pyran-2-yl)-ethyl]-phenyl}-ethyl)-malonamic acid ethyl ester], for which the inhibition at 50 µM was 14%.

The assay is the same for the next values; noted with them: recombinant HCV polymerase; 30 minutes at 30° C.; concentration giving 50% inhibition of polymerase-directed transcription; read-out: IC50.
Regarding `Cc1noc(C)c1-c1ccc(CCC2(C3CCCC3)CC(=O)CC(=O)O2)cc1` (centres unmarked) [A(18), 6-Cyclopentyl-6-{2-[4-(3,5-dimethyl-isoxazol-4-yl)-phenyl]-ethyl}-dihydro-pyran-2,4-dione], the IC50 came to 3.1 µM. As to `CCc1cc(CCC2(C3CCCC3)CC(=O)CC(=O)O2)ccc1O` (centres unmarked) [A(22), 6-Cyclopentyl-6-[2-(3-ethyl-4-hydroxy-phenyl)-ethyl]-dihydro-pyran-2,4-dione], the concentration for half-maximal inhibition (IC50) was 0.3 µM. With `CCCC1(CCc2ccc(OC)cc2)CC(=O)CC(=O)O1` (centres unmarked) [A(25), 6-[2-(4-Methoxy-phenyl)-ethyl]-6-propyl-dihydro-pyran-2,4-dione], the IC50 was found to be 73.9 µM. Consider `CC1(c2ccc(CCC3(C4CCCC4)CC(=O)CC(=O)O3)cc2Cl)CC(=O)CC(=O)O1` (centres unmarked) [A(27), 6-[2-(3-Chloro-4-(6-Methyl-dihydro-pyran-2,4-dione)-phenyl)-ethyl]-6-cyclopentyl-dihydro-pyran-2,4-dione], for which the IC50 came out at 0.125 µM. The same measure, in the same setting: the value for `CC1(c2cccc(CCC3(C4CCCC4)CC(=O)CC(=O)O3)c2)CC(=O)CC(=O)O1` (centres unmarked) [A(28), 6-Cyclopentyl-6-[2-(3-(6-Methyl-dihydro-pyran-2,4-dione)-phenyl)-ethyl]-dihydro-pyran-2,4-dione] was 3.9 µM.

`CC1(c2ccc(CCC3(C4CCCC4)CC(=O)CC(=O)O3)cc2)CCC(=O)O1` (centres unmarked) [A(29), 6-Cyclopentyl-6-{2-[4-(2-methyl-5-oxo-tetrahydro-furan-2-yl)-phenyl]-ethyl}-dihydro-pyran-2,4-dione]: the IC50 came out at 1.5 µM. Regarding `CCC1(c2ccc(CCC3(C4CCCC4)CC(=O)CC(=O)O3)cc2Cl)CC(=O)CC(=O)O1` (centres unmarked) [A(30), 6-[2-(3-Chloro-4-(6-Ethyl-dihydro-pyran-2,4-dione)-phenyl)-ethyl]-6-cyclopentyl-dihydro-pyran-2,4-dione], the IC50 amounted to 0.84 µM. As for `O=C1CC(=O)OC(CCc2ccc(C3(C4CC4)CC(=O)CC(=O)O3)cc2)(C2CCCC2)C1` (centres unmarked) [A(31)], the IC50 came to 0.4 µM.

For `O=C1CC(=O)OC(CCc2ccc(C(=O)C3CC3)cc2)(C2CCCC2)C1` (centres unmarked) [A(32), 6-Cyclopentyl-6-[2-(4-cyclopropanecarbonyl-phenyl)-ethyl]-dihydro-pyran-2,4-dione], the IC50 is 5.2 µM.

For `COC(=O)C(C)(C)c1ccc(CCC2(C3CCCC3)CC(=O)CC(=O)O2)cc1` (centres unmarked) [A(33), 2-{4-[2-(2-Cyclopentyl-4,6-dioxo-tetrahydro-pyran-2-yl)-ethyl]-phenyl}-2-methyl-propionic acid methyl ester], the IC50 is 5 µM. `CC(C)(C)C1(c2ccc(CCC3(C4CCCC4)CC(=O)CC(=O)O3)cc2)OCCO1` (centres unmarked) [A(34), 6-{2-[4-(2-tert-Butyl-[1,3]dioxolan-2-yl)-phenyl]-ethyl}-6-cyclopentyl-dihydro-pyran-2,4-dione]: the 50% inhibitory concentration (IC50) is 10 µM. As to `C[C@@H](O)c1ccc(CCC2(C3CCCC3)CC(=O)CC(=O)O2)cc1` (some centres unmarked) [A(35), 6-Cyclopentyl-6-{2-[4-(1-hydroxy-ethyl)-phenyl]-ethyl}-dihydro-pyran-2,4-dione], the IC50 is 4.1 µM.

As for `C[C@H](O)c1ccc(CCC2(C3CCCC3)CC(=O)CC(=O)O2)cc1` (some centres unmarked) [A(36), 6-Cyclopentyl-6-{2-[4-(1-hydroxy-ethyl)-phenyl]-ethyl}-dihydro-pyran-2,4-dione], the IC50 turned out to be 8.4 µM.

Consider `CC(C)(C)C(=O)c1ccc(CCC2(C3CCCC3)CC(=O)CC(=O)O2)cc1` (centres unmarked) [A(37), 6-Cyclopentyl-6-{2-[4-(2,2-dimethyl-propionyl)-phenyl]-ethyl}-dihydro-pyran-2,4-dione], for which the IC50 worked out at 8.7 µM. `CC(=O)N[C@H](C)c1ccc(CCC2(C3CCCC3)CC(=O)CC(=O)O2)cc1` (some centres unmarked) [A(38), N-(1-{4-[2-(2-Cyclopentyl-4,6-dioxo-tetrahydro-pyran-2-yl)-ethyl]-phenyl}-ethyl)-acetamide]: the IC50 is 12 µM. Take `N#CC1(c2ccc(CCC3(C4CCCC4)CC(=O)CC(=O)O3)cc2)CC1` (centres unmarked) [A(40), 1-{4-[2-(2-Cyclopentyl-4,6-dioxo-tetrahydro-pyran-2-yl)-ethyl]-phenyl}-cyclopropanecarbonitrile]: the IC50 was 2 µM. `CNC(=O)N[C@H](C)c1ccc(CCC2(C3CCCC3)CC(=O)CC(=O)O2)cc1` (some centres unmarked) [A(41), 1-(1-{4-[2-(2-Cyclopentyl-4,6-dioxo-tetrahydro-pyran-2-yl)-ethyl]-phenyl}-ethyl)-3-methyl-urea]: the IC50 was found to be 13 µM. Consider `C[C@@H](NS(C)(=O)=O)c1ccc(CCC2(C3CCCC3)CC(=O)CC(=O)O2)cc1` (some centres unmarked) [A(42), N-(1-{4-[2-(2-Cyclopentyl-4,6-dioxo-tetrahydro-pyran-2-yl)-ethyl]-phenyl}-ethyl)-methanesulfonamide], for which the IC50 turned out to be 8 µM.

For the molecule `Cc1cc(C(=O)N[C@H](C)c2ccc(CCC3(C4CCCC4)CC(=O)CC(=O)O3)cc2)no1` (some centres unmarked) [A(43), 5-Methyl-isoxazole-3-carboxylic acid (1-{4-[2-(2-cyclopentyl-4,6-dioxo-tetrahydro-pyran-2-yl)-ethyl]-phenyl}-ethyl)-amide], the 50% inhibitory concentration (IC50) stood at 20 µM. As to `O=C1CC(=O)OC(CCC2CCCCC2)(C2CCCC2)C1` (centres unmarked) [A(44), 6-(2-Cyclohexyl-ethyl)-6-cyclopentyl-dihydro-pyran-2,4-dione], the IC50 was determined as 68.3 µM.

As for `N#Cc1cccc(-c2ccc(CCC3(C4CCCC4)CC(=O)CC(=O)O3)cc2)c1` (centres unmarked) [A(45), 4′-[2-(2-Cyclopentyl-4,6-dioxo-tetrahydro-pyran-2-yl)-ethyl]-biphenyl-3-carbonitrile], the IC50 is 30 µM. With `N#Cc1ccccc1CCC1(C2CCCC2)CC(=O)CC(=O)O1` (centres unmarked) [A(46), 2-[2-(2-Cyclopentyl-4,6-dioxo-tetrahydro-pyran-2-yl)-ethyl]-benzonitrile], the IC50 is 73 µM. In the case of `O=C1CC(=O)OC(CCc2ccc3ccccc3c2)(C2CCCC2)C1` (centres unmarked) [A(47), 6-Cyclopentyl-6-(2-naphthalen-2-yl-ethyl)-dihydro-pyran-2,4-dione], the IC50 stood at 7 µM.

For `O=C1CC(=O)OC(CCc2ccc(OC3CCCCO3)cc2)(C2CCCC2)C1` (centres unmarked) [A(48), 6-Cyclopentyl-6-{2-[4-(tetrahydro-pyran-2-yloxy)-phenyl]-ethyl}-dihydro-pyran-2,4-dione], the IC50 turned out to be 33.2 µM. On the same count and under the same terms, with `CNC(=O)C(C)(C)c1ccc(CCC2(C3CCCC3)CC(=O)CC(=O)O2)cc1` (centres unmarked) [A(49), 2-{4-[2-(2-Cyclopentyl-4,6-dioxo-tetrahydro-pyran-2-yl)-ethyl]-phenyl}-N-methyl-isobutyramide] the figure was 9 µM; with `O=C1CC(=O)OC(CCc2ccc(-c3nnc(-c4ccccc4)o3)cc2)(C2CCCC2)C1` (centres unmarked) [A(50), 6-Cyclopentyl-6-{2-[4-(5-phenyl-[1,3,4]oxadiazol-2-yl)-phenyl]-ethyl}-dihydro-pyran-2,4-dione], 5.9 µM.

Take `CCNC(=O)C(C)(C)c1ccc(CCC2(C3CCCC3)CC(=O)CC(=O)O2)cc1` (centres unmarked) [A(51), 2-{4-[2-(2-Cyclopentyl-4,6-dioxo-tetrahydro-pyran-2-yl)-ethyl]-phenyl}-N-ethyl-isobutyramide]: the half-maximal inhibitory concentration (IC50) came out at 3.9 µM. Take `COC(=O)CC(=O)CC(=O)C(C)(C)Oc1ccc(CCC2(C3CCCC3)CC(=O)CC(=O)O2)cc1F` (centres unmarked) [A(52), 6-{4-[2-(2-Cyclopentyl-4,6-dioxo-tetrahydro-pyran-2-yl)-ethyl]-2-fluoro-phenoxy}-6-methyl-3,5-dioxo-heptanoic acid methyl ester]: the IC50 stood at 1.5 µM. Consider `COC(=O)C(C)(C)Oc1ccc(CCC2(C3CCCC3)CC(=O)CC(=O)O2)cc1Cl` (centres unmarked) [A(53), 2-{2-Chloro-4-[2-(2-cyclopentyl-4,6-dioxo-tetrahydro-pyran-2-yl)-ethyl]-phenoxy}-2-methyl-propionic acid methyl ester], for which the IC50 turned out to be 3.3 µM.

For `O=C(O)COc1ccc(CCC2(C3CCCC3)CC(=O)CC(=O)O2)cc1Cl` (centres unmarked) [A(54)], the IC50 is 2.9 µM.

For the molecule `COC(=O)C(C)(C)Oc1ccc(CCC2(C3CCCC3)CC(=O)CC(=O)O2)cc1F` (centres unmarked) [A(55), 2-{4-[2-(2-Cyclopentyl-4,6-dioxo-tetrahydro-pyran-2-yl)-ethyl]-2-fluoro-phenoxy}-2-methyl-propionic acid methyl ester], the IC50 amounted to 11.2 µM. With `Cc1nc(C(C)(C)c2ccc(CCC3(C4CCCC4)CC(=O)CC(=O)O3)cc2)no1` (centres unmarked) [A(56), 6-Cyclopentyl-6-(2-{4-[1-methyl-1-(5-methyl-[1,2,4]oxadiazol-3-yl)-ethyl]-phenyl}-ethyl)-dihydro-pyran-2,4-dione], the IC50 stood at 39 µM. Consider `O=C1CC(=O)OC(CCCCC2CCCCC2)(C2CCCC2)C1` (centres unmarked) [A(57), 6-(4-Cyclohexyl-butyl)-6-cyclopentyl-dihydro-pyran-2,4-dione], for which the IC50 was determined as 6.3 µM.

The values are drawn from patent publication US7473790B2 (Pfizer Inc., priority 2003, dated 2009).
